Where a name gives a salt, the structure may show the parent alone.
Tests used:
[1] = molecular target: T1, 5HT uptake (serotonin reuptake), synaptosomes from hypothalamus of male rat brains (Rattus norvegicus, UniProt P31652); assay: Serotonin reuptake inhibition (5HT uptake inhibition) in rat brain synaptosomes; format: biochemical
T1 construct: synaptosomes are freshly isolated from areas of rat brain; from tissue; host or cells: synaptosomes (P2 fraction) from hypothalamus of male rat brains
T1 sequence (P31652 whole entry): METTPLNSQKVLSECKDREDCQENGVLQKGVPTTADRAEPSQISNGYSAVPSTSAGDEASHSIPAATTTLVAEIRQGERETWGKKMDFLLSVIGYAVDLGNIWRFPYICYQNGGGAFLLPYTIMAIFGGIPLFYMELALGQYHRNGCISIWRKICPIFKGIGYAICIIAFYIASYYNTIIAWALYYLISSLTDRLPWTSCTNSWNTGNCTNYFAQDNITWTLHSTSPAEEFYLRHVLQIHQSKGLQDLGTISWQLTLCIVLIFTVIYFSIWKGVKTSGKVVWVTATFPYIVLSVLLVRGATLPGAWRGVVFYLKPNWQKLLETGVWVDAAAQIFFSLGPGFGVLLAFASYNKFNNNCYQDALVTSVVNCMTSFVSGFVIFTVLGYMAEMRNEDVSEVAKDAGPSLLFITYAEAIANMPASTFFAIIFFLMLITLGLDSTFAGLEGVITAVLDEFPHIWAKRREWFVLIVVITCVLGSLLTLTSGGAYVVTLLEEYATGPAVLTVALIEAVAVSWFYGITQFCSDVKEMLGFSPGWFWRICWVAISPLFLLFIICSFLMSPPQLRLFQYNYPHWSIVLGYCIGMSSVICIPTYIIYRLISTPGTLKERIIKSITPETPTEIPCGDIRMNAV
Protocol: Biological Testing a) Studies of Serotonin Reuptake Inhibition (5HT Uptake Inhibition)
In order to be able to carry out these in vitro studies, synaptosomes are freshly isolated from areas of rat brain. A so-called “P2” fraction is used in each case, which is prepared according to the procedure of Gray and Whittaker (E. G. Gray and V. P. Whittaker (1962) J. Anat. 76, 79-88). For 5HT uptake, these vesicular particles are isolated from the hypothalamus of male rat brains. A detailed description of the method can be found in the literature (M. Ch. Frink, H.-H. Hennies, W. Englberger, M. Haurand and B. Wilffert (1996) Arzneim.-Forsch./Drug Res. 46 (III), 11, 1029-1036).

[2] = molecular target: T2, NA uptake (noradrenaline reuptake), synaptosomes from hypothalamus of male rat brains (Rattus norvegicus, UniProt Q63380); assay: Noradrenaline reuptake inhibition (NA uptake inhibition) in rat brain synaptosomes; format: biochemical
T2 construct: synaptosomes are freshly isolated from areas of rat brain; from tissue; host or cells: synaptosomes (P2 fraction) from hypothalamus of male rat brains
T2 sequence (Q63380 1-617): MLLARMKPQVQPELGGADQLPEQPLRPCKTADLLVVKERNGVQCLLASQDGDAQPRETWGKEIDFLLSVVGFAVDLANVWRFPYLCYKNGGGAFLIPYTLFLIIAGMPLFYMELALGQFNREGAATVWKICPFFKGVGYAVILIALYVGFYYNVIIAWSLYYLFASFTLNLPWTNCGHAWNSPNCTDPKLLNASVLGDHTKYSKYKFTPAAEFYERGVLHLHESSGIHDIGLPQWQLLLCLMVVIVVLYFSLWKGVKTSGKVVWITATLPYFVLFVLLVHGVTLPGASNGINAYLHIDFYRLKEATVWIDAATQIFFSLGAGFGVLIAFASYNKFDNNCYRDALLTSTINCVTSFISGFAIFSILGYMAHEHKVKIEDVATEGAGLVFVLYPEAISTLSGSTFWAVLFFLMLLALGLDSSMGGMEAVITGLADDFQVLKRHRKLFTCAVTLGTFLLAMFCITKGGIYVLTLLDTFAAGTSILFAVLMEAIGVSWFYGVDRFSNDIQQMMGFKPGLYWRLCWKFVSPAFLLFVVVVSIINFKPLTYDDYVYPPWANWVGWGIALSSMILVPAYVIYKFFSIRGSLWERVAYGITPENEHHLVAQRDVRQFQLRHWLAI
Protocol: b) Studies of Noradrenaline Reuptake Inhibition (NA Uptake Inhibition)
In order to be able to carry out these in vitro studies, synaptosomes are freshly isolated from areas of rat brain. A so-called “P2” fraction is used in each case, which is prepared according to the procedure of Gray and Whittaker (E. G. Gray and V. P. Whittaker (1962) J. Anat. 76, 79-88). For NA uptake, these vesicular particles are isolated from the hypothalamus of male rat brains. A detailed description of the method can be found in the literature (M. Ch. Frink, H.-H. Hennies, W. Englberger, M. Haurand and B. Wilffert (1996) Arzneim.-Forsch./Drug Res. 46 (III), 11, 1029-1036).

human μ-opiate receptor = molecular target: T3, human μ-opiate receptor (Homo sapiens, UniProt P35372); assay: Measurement of μ binding ([3H]-naloxone displacement, SPA, CHO-K1 membrane preparation); settings: 1.5 h; % inhibition of specific [3H]-naloxone binding at 1 μM test substance
T3 construct: purchased NEN, Zaventem, Belgium RB-HOM; host or cells: CHO-K1 cells (membrane preparation)
T3 sequence (P35372 whole entry): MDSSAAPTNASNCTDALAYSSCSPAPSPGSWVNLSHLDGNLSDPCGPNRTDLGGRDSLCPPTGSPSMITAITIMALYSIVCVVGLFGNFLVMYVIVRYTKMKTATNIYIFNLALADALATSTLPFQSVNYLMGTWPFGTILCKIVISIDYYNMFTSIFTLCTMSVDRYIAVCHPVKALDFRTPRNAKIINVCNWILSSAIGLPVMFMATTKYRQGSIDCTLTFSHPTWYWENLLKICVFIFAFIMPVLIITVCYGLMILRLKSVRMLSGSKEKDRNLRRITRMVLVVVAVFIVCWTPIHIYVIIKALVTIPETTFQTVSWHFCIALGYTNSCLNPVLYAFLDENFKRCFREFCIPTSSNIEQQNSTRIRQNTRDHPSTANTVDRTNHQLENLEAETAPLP
Protocol: c) Measurement of μ Binding
The receptor affinity for the human μ-opiate receptor was determined in a homogeneous batch on microtitre plates. To that end, serial dilutions of the substituted spirocyclic cyclohexane derivative to be tested were incubated for 90 minutes at room temperature with a receptor membrane preparation (15-40 μg of protein per 250 μl of incubation batch) of CHO-K1 cells, which express the human μ-opiate receptor (RB-HOM receptor membrane preparation from NEN, Zaventem, Belgium), in the presence of 1 nmol/l of the radioactive ligand [^3H]-naloxone (NET719, NEN, Zaventem, Belgium) and 1 mg of WGA-SPA beads (wheatgerm agglutinin SPA beads from Amersham/Pharmacia, Freiburg, Germany) in a total volume of 250 μl. The incubation buffer used was 50 mmol/l of Tris-HCl supplemented with 0.05 wt. % sodium azide and with 0.06 wt. % bovine serum albumin. In order to determine non-specific binding, 25 μmol/l of naloxone were additionally added. When the ninety-minute incubation time was complete, the microtitre plates were centrifuged off for 20 minutes at 1000 g and the radioactivity was measured in a β-counter (Microbeta-Trilux, PerkinElmer Wallac, Freiburg, Germany). The percentage displacement of the radioactive ligand from its binding to the human μ-opiate receptor at a concentration of the test substances of 1 μmol/l was determined and stated as the percentage inhibition (% inhibition) of specific binding. In some cases, on the basis of the percentage displacement by different concentrations of the compounds of formula I to be tested, IC50 inhibitory concentrations, which effect 50% displacement of the radioactive ligand, were calculated. Ki values for the test substances were obtained by conversion by means of the Cheng-Prusoff equation.

COc1cccc(C2(O)CCC3(CC2CN(C)C)NCCc2c3[nH]c3ccccc23)c1 (stereo not drawn) [Example 1, 1,1-(2-(Dimethylaminomethyl)-3-hydroxy-3-(3-methoxyphenyl)pentamethylene)-3,4-dihydro-1H-2,9-diazafluorene dihydrochloride]
inhibition at 10 µM [1]: 44%
inhibition at 10 µM [2]: 43%
inhibition at 1 µM (human μ-opiate receptor): 40%

COc1cccc(C2(O)CCC3(CC2CN(C)C)c2[nH]c4ccccc4c2CCN3C(C)=O)c1 (stereo not drawn) [Example 2, 1,1-(2-(Dimethylaminomethyl)-3-hydroxy-3-(3-methoxyphenyl)pentamethylene)-2-acetyl-3,4-dihydro-1H-2,9-diazafluorene hydrochloride]
inhibition at 1 µM (human μ-opiate receptor): 65%

CN(C)CC1CC2(CCC1(O)c1ccccc1)OCCc1c2[nH]c2ccccc12 (stereo not drawn) [Example 4, 1,1-(2-(Dimethylaminomethyl)-3-hydroxy-3-phenyl-pentamethylene)-1,3,4,9-tetrahydro-pyrano[3,4-b]indole sesquicitrate]
inhibition at 10 µM [1]: 84%
inhibition at 1 µM (human μ-opiate receptor): 74%

CN(C)CC1CC2(CCC1(O)c1ccccc1)OCCc1c2oc2ccccc12 (stereo not drawn) [Example 5, 1,1-(2-(Dimethylaminomethyl)-3-hydroxy-3-phenyl-pentamethylene)-1,3,4,9-tetrahydro-pyrano[3,4-b]benzofuran citrate]
inhibition at 10 µM [1]: 84%
inhibition at 10 µM [2]: 51%
inhibition at 1 µM (human μ-opiate receptor): 58%

CN(C)CC1CC2(CCC1(O)c1cccc(F)c1)OCCc1c2oc2ccccc12 (stereo not drawn) [Example 8, 1,1-(2-(Dimethylaminomethyl)-3-hydroxy-3-(3-fluorophenyl)-pentamethylene)-1,3,4,9-tetrahydro-pyrano[3,4-b]benzofuran citrate]
inhibition at 10 µM [1]: 88%
inhibition at 10 µM [2]: 66%
inhibition at 1 µM (human μ-opiate receptor): 73%

Cc1ccccc1C1(O)CCC2(CC1CN(C)C)OCCc1c2oc2ccccc12 (stereo not drawn) [Example 12, 1,1-(2-(Dimethylaminomethyl)-3-hydroxy-3-(2-methylphenyl)-pentamethylene)-1,3,4,9-tetrahydro-pyrano[3,4-b]benzofuran citrate]
inhibition at 10 µM [1]: 68%
inhibition at 10 µM [2]: 41%
inhibition at 1 µM (human μ-opiate receptor): 56%

CN(C)CC1CC2(CCC1(O)c1cccc(F)c1)OCCc1c2[nH]c2ccccc12 (stereo not drawn) [Example 27, 1,1-(2-(Dimethylaminomethyl)-3-hydroxy-3-(3-fluorophenyl)-pentamethylene)-1,3,4,9-tetrahydro-pyrano[3,4-b]indole hydrochloride]
inhibition at 10 µM [1]: 83%
inhibition at 1 µM (human μ-opiate receptor): 64%

CN(C)CC1CC2(CCC1(O)c1ccccc1)NCCc1c2[nH]c2ccccc12 (stereo not drawn) [Example 28, 1,1-(2-(Dimethylaminomethyl)-3-hydroxy-3-phenyl-pentamethylene)-3,4-dihydro-1H-2,9-diazafluorene citrate]
inhibition at 1 µM (human μ-opiate receptor): 57%

CSc1ccc(C2(O)CCC3(CC2CN(C)C)NCCc2c3[nH]c3cc(F)ccc23)cc1 (stereo not drawn) [Example 34, 1,1-(2-(Dimethylaminomethyl)-3-hydroxy-3-(4-methylthiophenyl)-pentamethylene)-7-fluoro-3,4-dihydro-1H-2,9-diazafluorene citrate]
inhibition at 10 µM [1]: 65%
inhibition at 10 µM [2]: 57%
inhibition at 1 µM (human μ-opiate receptor): 54%

From US7776848B2, “Spirocyclic cyclohexane compounds” (Gruenenthal GmbH, priority 2004, dated 2010)
